The subject of assay [1] is cotton aphid (Aphis gossypii). The assay is described as follows: Cotton aphid control test on cucumber, spray (Test Example 19). Type of assay: in vivo. The note with it: 500 ppm, 20 mL sprayed on cucumber with 30 aphids; surviving insects counted after 6 days. Here is the method: A water dilution (test chemical solution) containing a surfactant prepared by adjusting so as to contain a predetermined concentration (500 ppm) of the present compound 21 was used as a test chemical solution. Thirty (30) heads of cotton aphid (Aphis gossypii) (including adults and larvae) were released on the leaves of cucumber (cultivar; […]) grown in a polyethylene cup until the first true leaf was developed. Next day, 20 mL of the above test chemical solution was sprayed. After 6 days, the number of the surviving insects was counted and the control value was calculated by the following equation. Control value (%)={1-(Cb×Tai)/(Cai×Tb)}×100 wherein symbols in the equation represent the followings: Cb: Number of insects before spraying chemical solution in untreated area; Cai: Number of surviving insects in untreated area; Tb: Number of insects before spraying chemical solution in treated area; and Tai: Number of surviving insects in treated area.

In assay [2] the test system is wheat rust fungus (Puccinia recondita). Put plainly: Wheat rust control test, foliar spray before inoculation (Test Examples 3, 4, Comparative Test Example). Type of assay: in vivo. Particulars: 200 ppm foliar spray, wheat (SHIROGANE), inoculated 5 days after spraying. Here is the method:
The control effect was evaluated by visually observing the area of lesion spots on each of test plants at the time of investigation, and comparing the area of lesion spots on a plant treated with the present compound with that on an untreated plant.
Each of plastic pots was filled with sandy loam and wheat (cultivar: SHIROGANE) was sowed and grown in a greenhouse for 9 days. Then, each water dilution containing a surfactant prepared by adjusting so as to contain a predetermined concentration (500 ppm) of any one compound of the present compounds 1, 18, 19, 20, 21, 27, 30, and 38 was sprayed over stems and leaves of the wheat so that it sufficiently adhered to the surface of the leaves of the wheat. After spraying, the plant was air-dried so as to dry the dilution on the surface of the leaves. After spraying, the plant was air-dried and cultivated at 20° C. for 5 days under illumination, and then inoculated by sprinkling with spores of wheat rust fungus (Puccinia recondita). After the inoculation, the plant was left to stand at 23° C. for one day under dark and high humidity condition, and cultivated under illumination at 20° C. for 8 days, and then the area of lesion spots was investigated.
Each of plastic pots was filled with sandy loam and wheat (cultivar: SHIROGANE) was sowed and grown in a greenhouse for 9 days. […]

Bounds are passed on as bounds.

In the case of `Cc1ccc(-c2cnc(OCc3c(C)cccc3-n3nnn(C)c3=O)c(C)c2)cc1` [Present Compound 21], the control value in assay [1] is on record as at least 90%. With `Cc1cccc(-n2nnn(C)c2=O)c1COc1cncc(Oc2ccccc2)c1` [1-[2-{5-phenoxypyridin-3-yloxymethyl}-3-methylphenyl]-4-methyl-1,4-dihydrotetrazol-5-one], the “area of lesion spots on the treated plant relative to that on an untreated plant” value in assay [2] is recorded as at least 70%.

Values taken from patent US9521848B2, “Tetrazolinone compound and use therefor” (Sumitomo Chemical Company, Limited, priority 2013, dated 2016).
